In patent EP3334759B1, “LACTOFERRIN FRAGMENT FOR THE USE AS ANTIBACTERIAL AND ANTIVIRAL AGENT” (Farmagens Health Care Srl, priority 2015, dated 2019):
Peptide text beside a SMILES is read from it.

Key:
[1] = test system: Vero cell line; assay type: cell-based, Cercopithecus aethiops
Experimental: MTT assay: cells of Vero cell line (ATCC CRL-1586™ kidney epithelial cells of Cercopithecus aethiops) were cultivated at the appropriate growth conditions as recommended by the supplier in 96-well plates at a concentration of 2 × 10^4 cells/well and treated with the peptides according to the invention at different concentrations diluted in growth medium (1, 5, 10, 20, 50, 100, 250 mM) for 3, 10 and 24 hours. Subsequently, the medium was aspirated and the cells incubated at 37 °C for 3 hours with 10 µl of MTT (bromide of 3-(4,5-dimethylthiazol-2-yl)-2,5-diphenyltetrazolium), a vital dye able to enter the mitochondria and be metabolized by succinate dehydrogenase complex to formazan salts, determining a violet coloration in those cells. Afterward, the supernatant was discharged and isopropanol (100 uL) was added to each well to dissolve the produced salts. The reaction was allowed to proceed by incubation at room temperature in tilting agitation for 20 minutes, then spectrophotometric reading was performed at 570nm to assess cell viability in terms of proliferative inhibition and cell growth.

[2] = test system: Human red blood cells; assay type: cell-based
Experimental: Human red blood cells from healthy donors have been isolated and used to performed the hemolytic assay. The peptide fragments of lactoferrin of SEQ ID No. 1 and SEQ ID No. 2 at different concentrations (1, 5, 10, 20, 50, 100, 250 mM) were added to the suspension of erythrocytes to a final volume of 100 µl. Samples were incubated under stirring at 37 °C for 60 min. The hemoglobin release was monitored by measuring the absorbance (Abs) of the supernatant at 540 nm. As negative control, i.e. zero hemolysis (blank), red cells resuspended in PBS were used, whereas completely lysed erythrocytes were used as a positive control for 100% hemolysis. The percentage of hemolysis was calculated using the following equation: % Hemolysis = [(SampleAbs−negativecontrolAbs)/(positivecontrolAbs−negativecontrolAbs)] × 100. [formula]

Compound	toxicity, measured as a function of cellular integrity [1]	toxicity towards the erythrocytes (hemolysis) [2]
CC(C)C[C@H](NC(=O)CNC(=O)[C@H](CS)NC(=O)[C@H](CCCCN)NC(=O)CNC(=O)[C@H](C)NC(=O)[C@@H](NC(=O)[C@@H](N)Cc1ccc(O)cc1)[C@@H](C)O)C(=O)N[C@H](C(=O)N1CCC[C@H]1C(=O)N[C@H](C(=O)N[C@@H](CC(C)C)C(=O)N[C@@H](C)C(=O)N[C@@H](CCC(=O)O)C(=O)N[C@@H](CC(N)=O)C(=O)N[C@@H](CCCNC(=N)N)C(=O)N[C@@H](CCCCN)C(=O)N[C@H](C(=O)N[C@@H](CO)C(=O)N[C@@H](CCCCN)C(=O)N[C@@H](Cc1ccc(O)cc1)C(=O)N[C@@H](CO)C(=O)N[C@@H](CO)C(=O)N[C@@H](CC(C)C)C(=O)N[C@@H](CC(=O)O)C(=O)N[C@@H](CS)C(=O)N[C@H](C(=O)N[C@@H](CC(C)C)C(=O)N[C@@H](CCCNC(=N)N)C(=O)N1CCC[C@H]1C(=O)O)C(C)C)[C@@H](C)O)C(C)C)C(C)C [SEQ ID No. 2] (H-YTAGKCGLVPVLAENRKTSKYSSLDCVLRP-OH)	≤ 20%	not toxic
CC(C)C[C@H](NC(=O)[C@H](CCC(N)=O)NC(=O)[C@H](Cc1ccccc1)NC(=O)[C@H](CO)NC(=O)[C@H](CCCNC(=N)N)NC(=O)[C@H](CO)NC(=O)[C@H](CCCCN)NC(=O)[C@H](CC(N)=O)NC(=O)[C@H](CCCCN)NC(=O)CNC(=O)[C@H](Cc1ccccc1)NC(=O)[C@@H](N)CCCCN)C(=O)N[C@@H](Cc1ccccc1)C(=O)NCC(=O)N[C@@H](CO)C(=O)N1CCC[C@H]1C(=O)N1CCC[C@H]1C(=O)NCC(=O)N[C@@H](CCC(N)=O)C(=O)N[C@@H](CCCNC(=N)N)C(=O)N[C@@H](CC(=O)O)C(=O)N[C@@H](CC(C)C)C(=O)N[C@@H](CC(C)C)C(=O)N[C@@H](Cc1ccccc1)C(=O)N[C@@H](CCCCN)C(=O)N[C@@H](CC(=O)O)C(=O)O [SEQ ID No. 1] (H-KFGKNKSRSFQLFGSPPGQRDLLFKD-OH)	≤ 20%	not toxic
